Five compounds from ChEMBL document CHEMBL1157902, “New diterpenoids from Caesalpinia species and their cytotoxic activity” (Bioorg Med Chem Lett, 2010) can be followed below.

One assay deals with HeLa. The experiment in a line: Cytotoxicity against human HeLa cells by MTT assay. In kind it is functional, cell-based. On the technique in general: Formazan colour is commonly taken as a measure of viable cells.
Another assay has as its system HL-60. The experiment in a line: Cytotoxicity against human HL60 cells by MTT assay. Format: functional, cell-based.

Broadly, the IC50 is the concentration needed to halve the response being measured. `COc1cc([C@@H]2c3cc4c(cc3[C@@H](O[C@@H]3O[C@@H]5CO[C@@H](C)O[C@H]5[C@H](O)[C@H]3O)[C@H]3COC(=O)[C@H]23)OCO4)cc(OC)c1O` [ETOPOSIDE] had a half-inhibitory concentration (IC50) with HeLa of 8.93 µM.

In the case of `C[C@H]1c2ccoc2C[C@H]2[C@H]1[C@@H](OC(=O)c1ccccc1)[C@@H](OC(=O)c1ccccc1)[C@@]1(O)C(C)(C)CCC[C@]21C`, in the assay with HeLa, the Activity entry was “Dose-dependent effect” and half-maximal inhibition (IC50) was put at 33.9 µM. Further, in the assay with HL-60, the Activity entry is “Dose-dependent effect” and half-maximal inhibition (IC50) was put at 19.8 µM.

As to `CC[C@@]1(O)C(=O)OCc2c1cc1n(c2=O)Cc2cc3ccccc3nc2-1` [CAMPTOTHECIN], the values for the IC50 in the assay on HeLa and in the assay on HL-60 were 0.94 µM and 0.59 µM, respectively.

On to `CC(=O)O[C@@H]1[C@H]2[C@@H](C)c3ccoc3C[C@@H]2[C@@]2(C)CCCC(C)(C)[C@]2(O)[C@@H]1OC(=O)/C=C/c1ccccc1`, for which, in the assay on HeLa, the Activity result is “Dose-dependent effect” and the half-maximal inhibitory concentration (IC50) was 33.4 µM. In addition, in the assay with HL-60, the Activity result was “Dose-dependent effect” and it took 17.4 µM to reach half-maximal inhibition (IC50).

Consider `C[C@H]1C2=CC(=O)O[C@]2(O)C[C@H]2[C@H]1[C@@H](O)[C@@H](OC(=O)c1ccccc1)[C@@]1(O)C(C)(C)CCC[C@]21C`, for which, in the assay on HeLa, the Activity entry was “Dose-dependent effect” and 52.7 µM corresponded to half-maximal inhibition (IC50). Also, in the assay on HL-60, the Activity result is “Dose-dependent effect” and the 50% inhibitory concentration (IC50) is 44.9 µM.
